Biological target: D(2) dopamine receptor (Homo sapiens, UniProt P14416)
Sequence (P14416 whole entry): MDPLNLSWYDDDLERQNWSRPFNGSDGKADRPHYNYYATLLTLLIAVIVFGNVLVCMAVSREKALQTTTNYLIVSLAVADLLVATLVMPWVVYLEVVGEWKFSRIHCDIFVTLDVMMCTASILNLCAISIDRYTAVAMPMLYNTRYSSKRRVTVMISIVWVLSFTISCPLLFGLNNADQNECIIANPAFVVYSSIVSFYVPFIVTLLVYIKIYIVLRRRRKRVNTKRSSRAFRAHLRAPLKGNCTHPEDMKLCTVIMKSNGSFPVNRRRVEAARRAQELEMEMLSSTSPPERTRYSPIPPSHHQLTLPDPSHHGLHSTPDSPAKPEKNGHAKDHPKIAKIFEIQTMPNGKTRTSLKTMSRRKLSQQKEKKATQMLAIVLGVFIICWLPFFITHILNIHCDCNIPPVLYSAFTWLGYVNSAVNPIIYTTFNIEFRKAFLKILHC

Ki: 2680 nM
SMILES: CN1CCN2c3ccccc3Cc3ccccc3[C@H]2C1 [MIANSERIN (+)]

From BindingDB's records for doi:10.1073/pnas.86.24.9762 (Oregon Health Sciences University, 1989)
